Read-outs that look alike come from different tables or passages of the source. Marks after values point to notes of the source that are not given here.
Tested on: MDD patients carrying the indicated biomarkers
Details: for Effect on change in HAMD-28 score / Effect on change in HAMD-17 score: Pooled phases
Method: Folate levels are classified as either low (<=2.5 ng/ml) or normal; and homocysteine levels as either normal or elevated (>=[…]). The presence or absence of at least one […] allele for the MTHFR gene are entered as a dichotomous variable (present or absent). […] Using folate as an example predicator, the presence or absence of a low serum-folate level along with treatment assignment can be entered in a 2×2, factorial ANOVA, using depression improvement scores (baseline minus endpoint HAM-D-17 scores) as the dependant variable. […] Similar analyses (i.e. separate 2×2 ANOVA's) can be performed substituting the presence of low folate levels for the presence of other predictors as described herein. Similarly, the effect of other predictors can be indicated by the interaction term representing the potential modulating influence of those variables.
The efficacy effect is determined by measuring the mean change in the HAMD-17 score and HAMD-28 score by the end of Phase I and Phase II, as compared to the baseline.

[1] = BMI < 30 kg/m^2 and HNE-His < median
[2] = BMI < 30 kg/m^2 and SAM/SAH >= median
[3] = BMI >= 30 kg/m^2 and HNE-His >= median
[4] = BMI*treat (interaction of BMI with the treatment)
[5] = MTHFR 677 CC and BMI < 30 kg/m^2
[6] = MTHFR 677 CT or TT and BMI >= 30 kg/m^2
[7] = MTHFR 677 CT or TT and HNE-His >= median
[8] = MTR 2756 AA and BMI < 30 kg/m^2
[9] = MTR 2756 AA and HNE-His < median
[10] = MTR 2756 AA and MTRR 66 AA and SAM/SAH >= median
[11] = MTR 2756 AA and SAM/SAH >= median
[12] = MTR 2756 AG or GG and BMI >= 30 kg/m^2
[13] = MTR 2756 AG or GG and MTRR 66 AG or GG
[14] = MTR 2756 AG or GG and MTRR 66 AG or GG and HNE-His >= median
[15] = MTRR 66 AA and SAM/SAH >= median
[16] = MTRR 66 AG or GG and HNE-His >= median
[17] = SAM/SAH < median and HNE-His >= median
[18] = SAM/SAH >= median and HNE-His < median

CN1c2c(nc(N)[nH]c2=O)NC[C@@H]1CNc1ccc(C(=O)N[C@@H](CCC(=O)O)C(=O)O)cc1 [6(S)-5-MTHF, 6(S)-5-methyltetrahydrofolate]
Effect on change in HAMD-28 score (BMI < 25): −1.018 | Effect on change in HAMD-17 score [1]: 4.738 | Effect on change in HAMD-28 score [1]: 4.253 | Effect on change in HAMD-17 score [2]: 2.583 | Effect on change in HAMD-28 score [2]: 2.906 | Effect on change in HAMD-17 score (BMI >= 30 kg/m^2): −4.600 | Effect on change in HAMD-28 score (BMI >= 30 kg/m^2): −4.660 | Effect on change in HAMD-17 score [3]: −5.420 | Effect on change in HAMD-28 score [3]: −5.996 | Effect on change in HAMD-17 score (BMI >= 30 kg/m^2 and SAM/SAH < median): −7.302 | Effect on change in HAMD-28 score (BMI >= 30 kg/m^2 and SAM/SAH < median = 2.71 (plasma)): −7.572 | Effect on change in HAMD-17 score [4]: −0.233 | Effect on change in HAMD-28 score [4]: −0.270 | Effect on change in HAMD-17 score [5]: 1.356 | Effect on change in HAMD-28 score [5]: −0.234 | Effect on change in HAMD-17 score (MTHFR 677 CC and HNE-His < median): −1.050 | Effect on change in HAMD-28 score (MTHFR 677 CC and HNE-His < median = 3.28 (plasma)): −1.340 | Effect on change in HAMD-17 score [6]: −8.090 | Effect on change in HAMD-28 score [6]: −9.884 | Effect on change in HAMD-17 score [7]: −9.446 | Effect on change in HAMD-28 score [7]: −9.865 | Effect on change in HAMD-17 score (MTR 2756 AA): −0.590 | Effect on change in HAMD-28 score (MTR 2756 AA): −0.047 | Effect on change in HAMD-17 score [8]: 3.196 | Effect on change in HAMD-28 score [8]: 3.352 | Effect on change in HAMD-17 score [9]: 1.319 | Effect on change in HAMD-28 score [9]: 2.085 | Effect on change in HAMD-17 score (MTR 2756 AA and MTRR 66 AA): −1.373 | Effect on change in HAMD-28 score (MTR 2756 AA and MTRR 66 AA): −3.032 | Effect on change in HAMD-17 score (MTR 2756 AA and MTRR 66 AA and HNE-His < median): 0.466 | Effect on change in HAMD-28 score (MTR 2756 AA and MTRR 66 AA and HNE-His < median = 3.28 (plasma)): −2.221 | Effect on change in HAMD-17 score [10]: −3.98* | Effect on change in HAMD-28 score [10]: −3.74* | Effect on change in HAMD-17 score [11]: 0.054 | Effect on change in HAMD-28 score [11]: −0.071 | Effect on change in HAMD-17 score [12]: −11.714 | Effect on change in HAMD-28 score [12]: −14.433 | Effect on change in HAMD-17 score (MTR 2756 AG or GG and HNE-His >= median): −8.072 | Effect on change in HAMD-28 score (MTR 2756 AG or GG and HNE-His >= median = 3.28 (plasma)): −9.508 | Effect on change in HAMD-17 score [13]: −6.976 | Effect on change in HAMD-28 score [13]: −9.348 | Effect on change in HAMD-17 score [14]: −7.942 | Effect on change in HAMD-28 score [14]: −10.241 | Effect on change in HAMD-17 score (MTR 2756 AG or GG and MTRR 66 AG or GG and SAM/SAH < median): −7.64* | Effect on change in HAMD-28 score (MTR 2756 AG or GG and MTRR 66 AG or GG and SAM/SAH < median = 2.71 (plasma)): −11.62* | Effect on change in HAMD-17 score (MTR 2756 AG or GG and SAM/SAH < median): −5.583 | Effect on change in HAMD-28 score (MTR 2756 AG or GG and SAM/SAH < median = 2.71 (plasma)): −11.683 | Effect on change in HAMD-17 score (MTR 2756 AG/GG): −5.677 | Effect on change in HAMD-28 score (MTR 2756 AG/GG): −8.243 | Effect on change in HAMD-17 score (MTRR 66 AA and HNE-His < median): 2.575 | Effect on change in HAMD-28 score (MTRR 66 AA and HNE-His < median = 3.28 (plasma)): −2.626 | Effect on change in HAMD-17 score [15]: −2.978 | Effect on change in HAMD-28 score [15]: −1.221 | Effect on change in HAMD-17 score [16]: −4.850 | Effect on change in HAMD-28 score [16]: −6.582 | Effect on change in HAMD-17 score (MTRR 66 AG or GG and SAM/SAH < median): −5.879 | Effect on change in HAMD-28 score (MTRR 66 AG or GG and SAM/SAH < median = 2.71 (plasma)): −6.579 | Effect on change in HAMD-17 score [17]: −9.898 | Effect on change in HAMD-28 score [17]: −9.500 | Effect on change in HAMD-17 score [18]: 2.107 | Effect on change in HAMD-28 score [18]: 2.413 | Effect on change in HAMD-28 score (SAM/SAH*treat, first line under HAMD28): 0.882 | Effect on change in HAMD-17 score (baseHAMD-17*treat (interaction of base HAMD-17 with the treatment)): −0.025 | improvement in HDRS-28 or CGI-S (at least one T allele (CT or TT) at MTHFR 677 versus no T allele, + SSRI): greater degree of improvement | improvement in HAMD-28 or CGI-S (obese (BMI at least 30 kg/m^2) versus non-obese patients, + SSRI): greater degree of improvement | mean change in HAMD-28 (patients carrying at least one G variant in the MTR gene only): about −8.2 | mean change in HAMD-28 (patients carrying both MTHFR T and MTR G variants): about −23.3

Source: US9546401B2, “Assays and methods for selecting a treatment regimen for a subject with depression” (The General Hospital Corporation, priority 2011, dated 2017)
